In patent publication US20220162262A1, “NOVEL COMPOUNDS AND THERAPEUTIC USES THEREOF” (priority 2019, published 2022):
Positions of bridges follow the written chain, without caps; N, C: chain ends. Non-standard residues stand in square brackets, D forms with d. Residues, ends and D or L forms follow the SMILES beside them. *: point of attachment. X1 = CC(=O)NC1[C@H](OCCCNC(=O)COc2cc(C(=O)*)cc(-c3ccccc3)c2)OC(CO)[C@@H](O[C@@H]2OC(CO)[C@H](O)[C@H](O[C@H]3OC(CO)[C@H](O)C(O)[C@@H]3O)C2O)[C@@H]1O; X2 = CC(=O)NC1C(O)[C@H](OC2OC(CO)C(O)[C@H](O[C@H]3OC(CO)C(O)C(O)C3O)C2O)C(CO)O[C@H]1OCCCNC(=O)COc1cc(C(=O)*)cc(-c2ccccc2)c1; PEG8 = NCCOCCOCCOCCOCCOCCOCCOCCOCCC(=O)O; Gly(octyl) = CCCCCCCC[C@H](N)C(=O)O; Dab = NCC[C@H](N)C(=O)O; Dap = NC[C@H](N)C(=O)O; Ahx = NCCCCCC(=O)O

Key:
Type in all cases: cell-based
[1] = test system: P. aeruginosa (ATCC 27853); experiment: Flow cytometric anti-Gal IgM antibody recruitment assay, P. aeruginosa ATCC 27853; details: for IgM Recruitment (20 μM, Average fold change) P. aeruginosa ATCC 27853: 20 μM compound, anti-Gal M86 IgM, MFI fold shift over vehicle control
Method: (§1) Flow Cytometric Antibody Recruitment Assay Using an Anti-Galα1-3Galβ1-4GlcNAc (Anti-Gal) Antibody
(§2) A secondary fluorescently labelled anti-IgM antibody was used to detect the anti-Gal antibody binding.
(§3) The assays were carried out in polystyrene 96-well U bottom plates (Costar). Frozen stocks of bacteria in mid-exponential phase were thawed, centrifuged and resuspended in LB broth, Miller (Fisher BP1426-500) at OD595=0.2. The bacteria was grown to mid-exponential phase (OD595=0.4), washed once with Hank's Balanced Salt Solution with calcium and magnesium (HBSS+/+) and then resuspended in HBSS+/+ at a bacterial D595=0.6. Bacteria was diluted ⅙ and placed in the 96-well U bottom plate. The bacteria were then incubated for 45 minutes with the compounds of Example 1-4 and reference compounds A-D (see Table 1) at 20 μM concentrations, Polymyxin B at 20 μM concentrations, or buffer alone (vehicle control), at room temperature and shaking at 450 rpm. The bacteria were then washed three times with 200 μL HBSS+/+, prior to adding 50 μL of the mouse/human chimeric anti-Gal IgM antibody M86 (Absolute Antibody Ab00532) at a final concentration of 25 μg/mL in HBSS+/+. The samples were incubated for 1 hour at room temperature shaking at 450 rpm. The bacteria were washed three times as above, prior to adding 100 μL of a FITC-labeled anti-human IgM secondary antibody (Biolegend 314506) at 10 μg/mL in HBSS+/+ and incubating at room temperature for 1 hour at 450 rpm. After three final washes with 200 μL HBSS+/+, the bacteria were resuspended in 200 μL HBSS+/+ and evaluated for anti-Gal antibody binding on a Cytoflex flow cytometer (Beckman Coulter). 50,000 counts of bacterial particles were sampled and the median fluorescent shift was recorded in the FITC-A channel. Data from all samples were analysed using Kaluza software (Beckman Coulter).
(§4) The fold shift over background was calculated by dividing the Median Fluorescent Intensity (MFI) obtained in the presence of 20 μM of the Example compounds by the MFI value obtained in the vehicle controls, i.e., the absence of Examples. The higher the fold shift over background, the more anti-Gal was bound to the bacterial surface. The shift in fluorescence intensity (FITC) occurs due to the binding event at each end of the molecule.
(§5) The fold shift over background was calculated by dividing the Median Fluorescent Intensity (MFI) obtained in the presence of 20 μM of the Example compounds (10 μM for Reference Example A and Example 2 against P. aeruginosa ATCC 27853, 6 μM for Reference Example A and Example 2 against P. aeruginosa PAO1 ATCC 15692) by the MFI value obtained in the vehicle controls, i.e., the absence of Examples. […] The shift in fluorescence intensity (FITC) occurs due to the binding event at each end of the molecule.

[2] = test system: E. coli K1:018ac:H7 (ATCC 700973); experiment: Flow cytometric anti-Gal IgM antibody recruitment assay, E. coli; details: for E. coli recruitment assay, side by side comparison with reference example (FIG. 2): 20 μM, in triplicate, E. coli ATCC 700973
Method: as §1, §2, §3, §4, §5

[3] = test system: K. pneumoniae (NCTC 13465); experiment: Flow cytometric anti-Gal IgM antibody recruitment assay, K. pneumoniae; details: for IgM Recruitment (20 μM, Average fold change) K. pneumoniae NCTC 134655: 20 μM compound, anti-Gal M86 IgM, MFI fold shift over vehicle control; for K. pneumoniae recruitment assay, side by side comparison with reference example (FIG. 2): 20 μM, in triplicate
Method: as §1, §2, §3, §4
The fold shift over background was calculated by dividing the Median Fluorescent Intensity (MFI) obtained in the presence of 20 μM of the Example compounds (10 μM for Reference Example A and Example 2 against P. aeruginosa ATCC 27853, 6 μM for Reference Example A and Example 2 against P. aeruginosa PAO1 ATCC 15692) by the MFI value obtained in the vehicle controls, i.e., the absence of Examples. The higher the fold shift over background, the more anti-Gal was bound to the bacterial surface. The shift in fluorescence intensity (FITC) occurs due to the binding event at each end of the molecule.

| Compound | IgM Recruitment (20 μM, Average fold change) P. aeruginosa ATCC 27853 [1] | E. coli recruitment assay, side by side comparison with reference example (FIG. 2) [2] | P. aeruginosa recruitment assay, side by side comparison with reference example (FIG. 2C) ([1]; 20 μM, in triplicate) | IgM Recruitment (20 μM, Average fold change) K. pneumoniae NCTC 134655 [3] | K. pneumoniae recruitment assay, side by side comparison with reference example (FIG. 2) [3] | IgM Recruitment (20 μM, Average fold change) E. coli K1 ATCC700973 ([2]; 20 μM compound, anti-Gal M86 IgM, MFI fold shift over vehicle control) |
| --- | --- | --- | --- | --- | --- | --- |
| CCCCCCCC[C@H](NC(=O)CCCCCNC(=O)CCCCCNC(=O)c1cc(OCC(=O)NCCCO[C@@H]2OC(CO)[C@@H](OC3OC(CO)C(O)[C@H](O[C@H]4OC(CO)C(O)C(O)C4O)C3O)C(O)C2NC(C)=O)cc(-c2ccccc2)c1)C(=O)N[C@@H](CCN)C(=O)N[C@H](C(=O)N[C@@H](CCN)C(=O)N[C@H]1CCNC(=O)[C@H]([C@@H](C)O)NC(=O)[C@H](CCN)NC(=O)[C@H](CCN)NC(=O)[C@H](CC(C)C)NC(=O)[C@@H](Cc2ccccc2)NC(=O)[C@H](CCN)NC1=O)[C@@H](C)O (stereo partly shown) [Example 1] ({X2-Ahx-Ahx}-[Gly(octyl)][Dab]T[Dab][Dab][Dab][dF]L[Dab][Dab]T; lactam 5-C) | 391 (n = 2) fold change | superiority over Reference Example B | – | – | – | – |
| CCCCCCCC[C@H](NC(=O)CCOCCOCCOCCOCCOCCOCCOCCOCCNC(=O)c1cc(OCC(=O)NCCCO[C@@H]2OC(CO)[C@@H](O[C@@H]3OC(CO)[C@H](O)[C@H](O[C@H]4OC(CO)[C@H](O)C(O)[C@@H]4O)C3O)[C@H](O)C2NC(C)=O)cc(-c2ccccc2)c1)C(=O)N[C@@H](CCN)C(=O)N[C@H](C(=O)N[C@H](CO)C(=O)N[C@H]1CCNC(=O)[C@H]([C@@H](C)O)NC(=O)[C@H](CCN)NC(=O)[C@H](CCN)NC(=O)[C@H](CC(C)C)NC(=O)[C@@H](Cc2ccccc2)NC(=O)[C@H](CCN)NC1=O)[C@@H](C)O (stereo partly shown) [Example 3] ({X1-PEG8}-[Gly(octyl)][Dab]T[dS][Dab][Dab][dF]L[Dab][Dab]T; lactam 5-C) | 1491 (n = 4) fold change | superiority over Reference Example C | superiority over Reference Example C | 1015 (n = 4) fold change | superiority over Reference Example C | – |
| CCCCCCCC[C@H](NC(=O)CCOCCOCCOCCOCCOCCOCCOCCOCCNC(=O)c1cc(OCC(=O)NCCCO[C@@H]2OC(CO)[C@@H](O[C@@H]3OC(CO)[C@H](O)[C@H](O[C@H]4OC(CO)[C@H](O)C(O)[C@@H]4O)C3O)[C@H](O)C2NC(C)=O)cc(-c2ccccc2)c1)C(=O)N[C@@H](CCN)C(=O)N[C@H](C(=O)N[C@@H](CN)C(=O)N[C@H]1CCNC(=O)[C@H]([C@@H](C)O)NC(=O)[C@H](CCN)NC(=O)[C@H](CCN)NC(=O)[C@H](CC(C)C)NC(=O)[C@@H](Cc2ccccc2)NC(=O)[C@H](CCN)NC1=O)[C@@H](C)O (stereo partly shown) [Example 4] ({X1-PEG8}-[Gly(octyl)][Dab]T[Dap][Dab][Dab][dF]L[Dab][Dab]T; lactam 5-C) | – | superiority over Reference Example D | – | 898 (n = 2) fold change | superiority over Reference Example D | – |
| Polymyxin B [PMB, reference compound] | 1 (n = 5) fold change | – | – | 1 (n = 2) fold change | – | 1 (n = 5) fold change |
